The text below walks through data of patent US5444055A, “17-hydroxyiminomethyl-5-β, 14 β-androstane derivatives active on the cardiovascular system, processes for their preparation and pharmaceutical compositions containing same” (Sigma-Tau Industrie Farmaceutiche Riunite S.p.A., priority 1992, dated 1995).

pIC50: −log10 of the molar value.

The IC50 is the point on the concentration scale where inhibition reaches its midpoint. By pIC50 is commonly meant the negative decadic logarithm of the IC50, by convention in mol/L. Higher therefore signals a low IC50.

Experiment [1] has as its target T1, Na^+,K^+ -ATPase (Homo sapiens, UniProt P05023). Description: displacement of specific ^3 H-ouabain binding from purified Na^+,K^+ -ATPase receptor. The settings on record: for IC50: read-out: Binding ^3 H-Ouab. Displacement -log IC50 (converted).
Experiment [2] addresses T1, Na^+,K^+ -ATPase. Description: inhibition of the activity of purified Na^+,K^+ -ATPase (hydrolysis of ^32 P-ATP). In kind it is biochemical. The settings on record: for IC50: purified Na^+,K^+ -ATPase, ^32 P-ATP hydrolysis, read-out: Inhibitory Activity -log IC50 (converted).
A short description of experiment [3]: prevention of development of hypertension, 5-week oral treatment, tail cuff SBP and HR. In kind it is in vivo. The note with it: 5 week-treatment, 20 mg/Kg/os daily in Methocel 0.5% w/v, 7 rats (MHS); for SBP: controls 173 +/- 4.5; for HR: controls 382 +/- 8.3.
Experiment [4] relates to Na^+,K^+ -ATPase. The note with it: literature report; cited from earlier work.
For experiment [5] the following is noted: literature report; cited from earlier work.

Turning to `CO/N=C/[C@H]1CC[C@]2(O)[C@@H]3CC[C@@H]4C[C@@H](O)CC[C@]4(C)[C@H]3CC[C@]12C` [Comp. I-aa, (E)-17β-Methoxyiminomethyl-5β-androstane-3β,14β-diol], the half-maximal inhibitory concentration (IC50) at Na^+,K^+ -ATPase [1] was 3980 nM. Besides, on Na^+,K^+ -ATPase [2], the pIC50 was 4.50.

As for `CO/N=C/[C@H]1CC[C@]2(O)[C@@H]3CC[C@@H]4C[C@@H](OCCCN)CC[C@]4(C)[C@H]3CC[C@]12C` [Comp. I-aq, (E)-3β-(3-Aminopropoxy)-17β-methoxyiminomethyl-5β-androstane-14β-ol], on Na^+,K^+ -ATPase [1], the 50% inhibitory concentration (IC50) was 631 nM. On Na^+,K^+ -ATPase [2], the negative-log IC50 (pIC50) is 4.80.

With `C/C(=N\OCCN(C)C)[C@H]1CC[C@]2(O)[C@@H]3CC[C@@H]4C[C@@H](O)CC[C@]4(C)[C@H]3CC[C@]12C` [Comp. I-ai, (E)-20-(2-Dimethylaminoethoxyimino)-5β-pregnane-3β,14β-diol], the IC50 was 79.4 nM at Na^+,K^+ -ATPase [1] and 2000 nM on Na^+,K^+ -ATPase [2].

`C[C@]12CC[C@H](O)C[C@H]1CC[C@@H]1[C@@H]2CC[C@]2(C)[C@@H](/C=N/OCCN)CC[C@]12O` [Comp. I-ab, (E)-17β-(2-Aminoethoxyimino)methyl-5β-androstane-3β-diol]: the concentration for half-maximal inhibition (IC50) was 79.4 nM on Na^+,K^+ -ATPase [1] and 1580 nM on Na^+,K^+ -ATPase [2].

On to `CN(C)CCO/N=C/[C@H]1CC[C@]2(O)[C@@H]3CC[C@@H]4C[C@@H](O)CC[C@]4(C)[C@H]3CC[C@]12C` [Comp. I-ad, (E)-17β-(2-Dimethylaminoethoxyimino)methyl-5β-androstane-3β,14 β-diol], for which, in experiment [3], the SBP is reported as 148 +/- 4.0 mm Hg and the HR was 375 +/- 10.5 beats/min. Moreover, at Na^+,K^+ -ATPase [1], the 50% inhibitory concentration (IC50) is 39.8 nM. Also, at Na^+,K^+ -ATPase [2], the pIC50 was 5.90.

Take `CN(C)CCON=C1CC[C@@]2(C)[C@H](CC[C@@H]3[C@@H]2CC[C@]2(C)[C@@H](/C=N/OCCN(C)C)CC[C@]32O)C1` (mixture of isomers) [Comp. I-az]: the results for the half-inhibitory concentration (IC50) on Na^+,K^+ -ATPase [1] and on Na^+,K^+ -ATPase [2] were 126 nM and 2000 nM, respectively.

With `CN(C)CCO/N=C/[C@H]1CC[C@]2(O)[C@@H]3CC[C@@H]4C[C@@H](OCCCN)CC[C@]4(C)[C@H]3CC[C@]12C` [Comp. I-as, (E)-3β-(3-Aminopropoxy)-17β-(2-dimethylaminoethoxyimino)methyl-5β-androstane-14β-ol], in experiment [3], the SBP is given as 149 +/- 7.9 mm Hg. The HR in experiment [3] is 377 +/- 9.5 beats/min. Further, the figures for the IC50 at Na^+,K^+ -ATPase [1] and on Na^+,K^+ -ATPase [2] were 39.8 nM and 316 nM, respectively.

Turning to `CO/N=C/[C@H]1CC[C@]2(O)[C@@H]3CC[C@@H]4C[C@@H](OCCN5CCCC5)CC[C@]4(C)[C@H]3CC[C@]12C` [Comp. I-ar], the SBP in experiment [3] is on record as 158 +/- 4.0 mm Hg. The HR in experiment [3] is on record as 385 +/- 6.4 beats/min. In addition, the half-maximal inhibitory concentration (IC50) is 794 nM on Na^+,K^+ -ATPase [1] and 15800 nM on Na^+,K^+ -ATPase [2].

Regarding `C[C@]12CC[C@H](O)C[C@H]1CC[C@@H]1[C@@H]2CC[C@]2(C)[C@@H](/C=N/OCCNC(=N)N)CC[C@]12O` [Comp. I-ag, (E)-17β-(2-Guanidinoethoxyimino)methyl-5β-androstane-3β,14β-diol], the 50% inhibitory concentration (IC50) on Na^+,K^+ -ATPase [1] is 158 nM. Further, the negative-log IC50 (pIC50) against Na^+,K^+ -ATPase [2] was 5.50.

As to `C[C@]12CC[C@H](O)C[C@H]1CC[C@@H]1[C@@H]2CC[C@]2(C)[C@@H](C=NNC(=N)N)CC[C@]12O` [17β-guanidinoiminomethyl-5β-androstane-3β,14β-diol], the “inhibition of Na^+,K^+-ATPase” value in the experiment on Na^+,K^+ -ATPase [4] is “weak inhibitors of Na^+,K^+ -ATPase”. Also, the positive inotropic activity result in experiment [5] was “weak positive inotropic agents”.

For `CN(C)CCO/N=C/[C@H]1CC[C@]2(O)[C@@H]3CC[C@@H]4CC(=NNC(=N)N)CC[C@]4(C)[C@H]3CC[C@]12C` (mixture of isomers) [Comp. I-aw, 3-((EZ)-Guanidinoimino)-17β-((E)-2-dimethylaminoethoxyiminomethyl)-5β-androstane-14β-ol], the IC50 was 79.4 nM at Na^+,K^+ -ATPase [1] and 1260 nM on Na^+,K^+ -ATPase [2].

In the case of `C[C@]12CC[C@H](O)C[C@H]1CC[C@@H]1[C@@H]2CC[C@]2(C)[C@@H](C=NO)CC[C@]12O` [17β-hydroxyiminomethyl-5β-androstane-3b,14b-diol], the “inhibition of Na^+,K^+-ATPase” value in the experiment on Na^+,K^+ -ATPase [4] is reported as “not to inhibit Na^+,K^+ -ATPase”.

As for `CN(C)CCO/N=C/[C@@]1(O)CC[C@]2(O)[C@@H]3CC[C@@H]4C[C@@H](O)CC[C@]4(C)[C@H]3CC[C@]12C` [Comp. I-ak, (E)-17β-(2-Dimethylaminoethoxyimino)methyl-5β-androstane-3β,14β,17α-triol], the results for the IC50 on Na^+,K^+ -ATPase [1] and at Na^+,K^+ -ATPase [2] were 1000 nM and 39800 nM, respectively.

With `C[C@]12CC[C@H](O)C[C@H]1CC[C@@H]1[C@@H]2CC[C@]2(C)C(=NNC(=N)N)CC[C@]12O` [17-guanidinoimino-5β-androstane-3β,14β-diol], in the experiment with Na^+,K^+ -ATPase [4], the “inhibition of Na^+,K^+-ATPase” value was “weak inhibitors of Na^+,K^+ -ATPase”. Moreover, the positive inotropic activity result in experiment [5] is recorded as “weak positive inotropic agents”.

Regarding `CN(C)CCCO/N=C/[C@H]1CC[C@]2(O)[C@@H]3CC[C@@H]4C[C@@H](O)CC[C@]4(C)[C@H]3CC[C@]12C` [Comp. I-af, (E)-17β-(3-Dimethylaminopropoxyimino)methyl-5.β-androstane-3β,14β-diol], on Na^+,K^+ -ATPase [1], the 50% inhibitory concentration (IC50) was 158 nM. Further, the pIC50 at Na^+,K^+ -ATPase [2] was 5.60.

At Na^+,K^+ -ATPase [1], `CN(C)CCO/N=C/[C@H]1CC[C@]2(O)[C@@H]3CC[C@@H]4C[C@@H](OCCN5CCCC5)CC[C@]4(C)[C@H]3CC[C@]12C` [Comp. I-au, (E)-3β-(2-(1-Pyrrolidinyl)ethoxy)-17β-(2-dimethylaminoethoxyimino)methyl-5β-androstane-3β,14β-diol] gave a negative-log IC50 (pIC50) of 7.30. The 50% inhibitory concentration (IC50) on Na^+,K^+ -ATPase [2] is 398 nM.
